From patent US10836792B2, “Retro-inverso peptide inhibitors of cell migration, extracellular matrix and endothelial invasion by tumor cells” (ISTITUTO NAZIONALE TUMORI IRCCS “FONDAZIONE G. PASCALE”, priority 2016, dated 2020)

Columns and labels:
sarcoma cell = conditions: mouse model of lung colonization; cited from earlier work
HT1080 cells [1] = experiment: FBS-directed migration of HT1080 cells in Boyden chambers; format: cell-based, human; conditions: 10 nM peptide, 10% FBS, 4 hrs
Method: FIG. 4 Retro-inverso peptides inhibit FBS-directed migration of HT1080 cells in a dose dependent manner (Example 4).
To assess whether retro-inverso peptides exert some effect on directional cell migration, HT1080 cells were allowed to migrate for 4 hrs in Boyden chambers toward serum-free medium (CTRL), 10% FBS (None) or 10% FBS mixed with peptides, each tested at 10 nM concentration. For quantitative analysis, the basal values assessed in the absence of FBS (CTRL) was taken as 100% and all values were reported relative to that. Data are the means±SD of two independent experiments, performed in triplicate. Statistical significance calculated against None with *p<0.01, **p<0.001 (A). All retro-inverso peptides caused a reduction of FBS-directed cell migration although to different extent. Peptides RI-1, RI-2, RI-3, RI-4 and RI-5 reduced by 49%, 46%, 65%, 9% and 6%, respectively, the extent of FBS-directed cell migration. Similar results were obtained when, HT1080 cell migration was monitored in real time for 18 hrs at 37° C., 5% CO2 by the xCELLigence system. Data represent mean±SD from a quadruplicate experiment representative of 2 replicates (B). Then, HT1080 cells were allowed to migrate in Boyden chambers toward 10% FBS plus increasing concentrations of RI-3, and data were expressed as a percentage of cells migrated toward FBS alone (100%) Inhibitory effect of RI-3 is dose-dependent, it starts in the high fM range, it seems to level off in the nM range and reaches an overall 50% reduction at 1×10^−13M (C).

HT1080 cells [2] = experiment: FBS-directed matrigel invasion of HT1080 cells (xCELLigence RTCA); format: cell-based, human; conditions: 10 nM peptide, growth medium, 20 hrs
Source text: FIG. 5 Peptides RI-1, RI-2, RI-3, RI-4 and RI-5 reduced by 33%, 35%, 81%, 52% and 11%, respectively, the extent of FBS-directed matrigel invasion of HT1080 cells (A), as assessed in real time using the xCELLigence RTCA technology. The inhibitory effect of RI-3 is dose-dependent (B) (Example 5).
Cell migration is a prerequisite for cancer invasion. Therefore, we investigated whether retro-inverso peptides prevent matrigel invasion of HT1080 cells using the xCELLigence RTCA technology. Cells were seeded on polymerized matrigel and lower chambers were filled with DMEM (CTRL), growth medium (None) or growth medium with 10 nM the indicated peptides (A), or with increasing concentrations of RI-3 (B). Matrigel invasion was monitored in real time for 20 (A) or 18 (B) hrs at 37° C., 5% CO2 and the impedance values were automatically monitored as changes in cell index. Data represent means±SD from quadruplicate experiments, each representative of 2 replicates. HT1080 cells were able to cross matrigel in the presence of 10% FBS. All retro-inverso peptides caused a reduction of FBS-directed cell migration although to different extent.

[3] = system: human fibrosarcoma HT1080 cells; experiment: Migration of HT1080 cells toward the peptides as chemoattractant (xCELLigence RTCA); format: cell-based; conditions: 10 nM peptide as chemoattractant, 18 hrs, cell index
Source text: Cell index due to the adhesion of migrating cells to microelectrodes are reported in (A); analysis of slopes representing the change rate of cell index generated in the time range 0-12 hr are reported in (B).
We assessed whether new generated retro-inverso peptides elicit themselves cell migration of human fibrosarcoma HT1080 cells. […] The results are depicted in FIG. 2. Data represent mean±SD from a quadruplicate experiment representative of 2 replicates (A).

Substance | inhibition of sarcoma cell invasion (sarcoma cell) | reduction of the extent of FBS-directed cell migration (HT1080 cells [1]) [%] | reduction of the extent of FBS-directed cell invasion (matrigel) (HT1080 cells [2]) [%] | cell migration triggered by the peptide [3]
Ac-L-Arg-Aib-L-Arg-D-Cα(Me)Phe-NH2 [UPARANT] | does not inhibit sarcoma cell invasion |  |  | 
Ac-(D)-Tyr-(D)-Arg-(D)-Ser-(D)-Arg-NH2 [RI-2] |  | 46 | 35 | 
Ac-(D)-Tyr-(D)-Arg-(D)-Glu-(D)-Arg-NH2 [RI-1] |  | 49 | 33 | 
Phenylacetyl-D-Arg-Aib-D-Arg-NH2 [RI-4] |  | 9 | 52 | 
N-formyl-methionyl-leucyl-phenylalanine peptide [fMLF] |  |  |  | elicited a considerable cell migration
3-phenylpropionyl-D-Arg-Aib-D-Arg-NH2 [RI-5] |  | 6 | 11 | 
